The test in a line: Inhibitory activity against hydrolysis of Gly-Pro-pNa by Dipeptidyl peptidase IV purified from CD26-negative C8166 cells.

One molecule from BindingDB's records for doi:10.1021/jm970640l (University of Versailles Saint-Quentin-en-Yvelines, 1998) can be followed below.

For `CCCCCCCC[S+](CCCCCCCC)Cc1ccc2cc1C(=O)NCC(=O)NCC(=O)NCCCC[C@H](N)C(=O)N1CCC[C@H]1C(=O)N2` [Cyclo(Lys(alphaH2+)-Pro-Aba-[CH2SOct2-]-Gly2-), 2CF3COO-], half-maximal inhibition (IC50) was put at 630 nM.

The IC50 is the concentration that inhibits the measured activity by half. Lower therefore signals inhibition by little substance.
